TGI and GI50 data for 14 compounds are collected here from PubChem BioAssay (NCI).

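Assay format: 96-well plates, 48-hour exposure. Here, GI50 denotes the concentration required for 50% inhibition of growth. Definition used: TGI = concentration required for complete inhibition of growth.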 Bounds are passed on as bounds.

Test systems include HCT-116 colon; OVCAR-5 ovarian; M14 melanoma; ACHN renal; SF-539 CNS; SK-MEL-28 melanoma; RPMI-8226 leukemia; SW-620 colon; TK-10 renal; BT-549 breast.
Assay in all cases: growth of human tumour cells (NCI), 48 h

As for `OCC(O)COc1c(Cl)cc(Cl)cc1Cl` (stereo not given), the TGI in the experiment on HCT-116 colon, in the experiment on OVCAR-5 ovarian, with M14 melanoma, in the experiment with ACHN renal, in the experiment on SF-539 CNS and in the experiment on SK-MEL-28 melanoma was greater than 100 µM throughout. For the same compound, the TGI in the experiment on RPMI-8226 leukemia is greater than 64.6 µM; in the experiment on SW-620 colon it was greater than 51.9 µM; with TK-10 renal it was greater than 100 µM.

Consider `c1ccc2c(c1)Sc1ccccc1N2C1CN2CCC1CC2` (stereo not given), for which the TGI in the experiment with HCT-116 colon was 28.8 µM; in the experiment on ACHN renal it was 36.1 µM; with SF-539 CNS, 28.3 µM; in the experiment on SK-MEL-28 melanoma it was 32.1 µM; with RPMI-8226 leukemia it was 43.4 µM; in the experiment on SW-620 colon it was 33.2 µM. The same compound returned a TGI in the experiment on TK-10 renal of 27.7 µM.

For `Nc1c(C(=O)NC23CC4CC(CC(C4)C2)C3)[n+]([O-])c2ccccc2[n+]1[O-]`, the TGI in the experiment with OVCAR-5 ovarian, with M14 melanoma, in the experiment on ACHN renal, in the experiment on SF-539 CNS, with SK-MEL-28 melanoma and in the experiment with RPMI-8226 leukemia was greater than 100 µM each time. Further, the TGI in the experiment on SW-620 colon and in the experiment with TK-10 renal was greater than 100 µM in each case.

Turning to `COc1cc(OC)c(F)c(COc2cnc(Nc3cnn(CCO)c3)nc2)c1F`, the GI50 in the experiment on HCT-116 colon is 0.386 µM; in the experiment on OVCAR-5 ovarian, 2.08 µM; in the experiment with SF-539 CNS it was 0.275 µM; in the experiment on SK-MEL-28 melanoma, 1.85 µM; with RPMI-8226 leukemia, 1.03 µM; in the experiment with BT-549 breast, 0.177 µM. Besides, the GI50 in the experiment on SW-620 colon is 412 nM; in the experiment on TK-10 renal, 1.01 µM. Moreover, the TGI with HCT-116 colon was greater than 100 µM; in the experiment with OVCAR-5 ovarian, greater than 100 µM; with SF-539 CNS, 2.17 µM; in the experiment on SK-MEL-28 melanoma, greater than 100 µM; with RPMI-8226 leukemia it was greater than 100 µM; in the experiment with BT-549 breast, greater than 100 µM. Also, the values for the TGI in the experiment with SW-620 colon and with TK-10 renal were greater than 100 µM and greater than 27.9 µM, respectively.

With `Cn1nc2ccc3nccc(NCCNCCO)c3c2n1`, the TGI was 89.4 µM in the experiment with HCT-116 colon; greater than 100 µM in the experiment on OVCAR-5 ovarian; greater than 100 µM in the experiment on M14 melanoma; greater than 100 µM in the experiment with ACHN renal; greater than 100 µM with SF-539 CNS; greater than 100 µM in the experiment with SK-MEL-28 melanoma. Moreover, the TGI with RPMI-8226 leukemia, with SW-620 colon and with TK-10 renal was greater than 100 µM throughout.

In the case of `CCOc1cc2c(=O)oc3c(OC)ccc4ccc(c1OC)c2c43`, the TGI with HCT-116 colon is 20.4 µM; in the experiment with OVCAR-5 ovarian, greater than 100 µM; in the experiment with M14 melanoma, greater than 100 µM; in the experiment on ACHN renal, greater than 100 µM; in the experiment with SF-539 CNS, greater than 100 µM; in the experiment with SK-MEL-28 melanoma it was greater than 100 µM. For the same compound, the TGI with SW-620 colon and in the experiment with TK-10 renal was greater than 100 µM throughout.

As to `C[N+](C)(C)CC(=O)N/N=C(/Cc1nc2ccc([N+](=O)[O-])cc2[nH]c1=O)C(=O)Nc1cc(C(F)(F)F)ccc1Cl`, the TGI with HCT-116 colon, with OVCAR-5 ovarian, with M14 melanoma, in the experiment on ACHN renal, in the experiment on SF-539 CNS and in the experiment with SK-MEL-28 melanoma was greater than 100 µM throughout. Further, the TGI in the experiment with RPMI-8226 leukemia, in the experiment on SW-620 colon and in the experiment with TK-10 renal was greater than 100 µM in each case.

In the case of `COc1ccc(OC(C)C(=O)O)c2c1CCCC2=O` (stereo not given), the TGI in the experiment on HCT-116 colon, in the experiment on OVCAR-5 ovarian, in the experiment on M14 melanoma, with ACHN renal, with SF-539 CNS and in the experiment with SK-MEL-28 melanoma was greater than 100 µM throughout. Moreover, the TGI with RPMI-8226 leukemia, with SW-620 colon and in the experiment with TK-10 renal was greater than 100 µM throughout.

Turning to `O=C(/C=C/c1ccccc1O)c1cccc2ccccc12`, the TGI with HCT-116 colon was greater than 69.7 µM; in the experiment with OVCAR-5 ovarian, greater than 100 µM; with M14 melanoma, greater than 100 µM; in the experiment with ACHN renal, greater than 100 µM; in the experiment on SF-539 CNS it was greater than 100 µM; with SK-MEL-28 melanoma it was greater than 100 µM. Also, the results for the TGI with RPMI-8226 leukemia, with SW-620 colon and with TK-10 renal were 76.6 µM, greater than 46.9 µM and greater than 100 µM, respectively.

For the compound `Cc1ccc(NC(=O)/C(=N/NC(=O)C[N+](C)(C)C)c2nc3ccccc3[nH]c2=O)cc1`, the TGI in the experiment with HCT-116 colon, in the experiment on OVCAR-5 ovarian, in the experiment on M14 melanoma, in the experiment on ACHN renal, in the experiment with SF-539 CNS and in the experiment with SK-MEL-28 melanoma was greater than 100 µM throughout. Besides, the values for the TGI with RPMI-8226 leukemia, in the experiment on SW-620 colon and with TK-10 renal were greater than 100 µM, 33.8 µM and greater than 100 µM, respectively.

Consider `O=C1CCNC(=O)NC1`, for which the TGI in the experiment on HCT-116 colon, with OVCAR-5 ovarian, with M14 melanoma, with ACHN renal, in the experiment with SK-MEL-28 melanoma and in the experiment with RPMI-8226 leukemia was greater than 100 µM each time. Also, the TGI in the experiment on SW-620 colon and with TK-10 renal was greater than 100 µM each time.

Regarding `C[N+](C)(C)CC(CC(=O)[O-])C1CC1` (stereo not given), the TGI in the experiment with OVCAR-5 ovarian, in the experiment on M14 melanoma, with ACHN renal, in the experiment on SF-539 CNS, with SK-MEL-28 melanoma and in the experiment with RPMI-8226 leukemia was greater than 100 µM in each case. Also, the TGI in the experiment with SW-620 colon and with TK-10 renal was greater than 100 µM each time.

In the case of `COc1ccc(-n2cc(-c3cc(OC)c(OC)c(OC)c3)[nH]c2=S)cc1Cl`, the GI50 with HCT-116 colon was 24.4 µM; in the experiment with OVCAR-5 ovarian it was 28.3 µM; in the experiment on ACHN renal, 44.3 µM; in the experiment with SF-539 CNS, 18.4 µM; in the experiment with SK-MEL-28 melanoma it was 63 µM; in the experiment on RPMI-8226 leukemia, 5.14 µM. For the same compound, the figures for the GI50 with BT-549 breast, in the experiment on SW-620 colon and in the experiment with TK-10 renal were 10.3 µM, greater than 100000 nM and 17.2 µM, respectively. Further, the TGI was greater than 100 µM in the experiment with HCT-116 colon; greater than 100 µM in the experiment with OVCAR-5 ovarian; greater than 100 µM in the experiment with ACHN renal; 48.8 µM with SF-539 CNS; greater than 100 µM in the experiment with SK-MEL-28 melanoma; greater than 100 µM with RPMI-8226 leukemia. In addition, the TGI in the experiment with BT-549 breast was 31.3 µM; in the experiment on SW-620 colon, greater than 100 µM; with TK-10 renal, 66.7 µM.

`Cc1ccc(/C=C/C(=O)c2ccc([N+](=O)[O-])cc2)cc1`: the TGI with HCT-116 colon, in the experiment on OVCAR-5 ovarian, with M14 melanoma, with ACHN renal, in the experiment with SF-539 CNS and in the experiment with SK-MEL-28 melanoma was greater than 100 µM in each case. Further, the TGI in the experiment with SW-620 colon and in the experiment on TK-10 renal was greater than 100 µM each time.
